Columns and labels:
[1] = test system: lactic acid bacteria and acetic acid bacteria; experiment: Bactericidal action on the bacterial flora (conclusion from agar plate counts); format: cell-based; conditions: bactericide = reduction by at least three decimal logarithms of CFU/ml
From the text: (§1) The word “bactericide” refers to a treatment having the effect of reducing a bacterial population by at least three decimal logarithms of colony forming units/ml on an agar plate count of a sample after treatment.
(§2) The toxicity results on yeasts and on bacteria are presented in the table below displaying the duration of exposure of the fungal flora to molecule A1 and the associated fluorescence measurement: yeasts lysis after exposure to the antifungal was confirmed by microscopic examination and methylene blue staining.
(§3) The toxicity results on yeasts and on bacteria are presented in the table below displaying the duration of exposure of the fungal flora to the molecule A2 and are obtained by enumeration on MRS agar media.

[2] = test system: Sacch. Cerevisae Saflager S23; experiment: Agar plate count after contact with antifungal; format: cell-based, Saccharomyces cerevisae; conditions: 400 mg/L; count at contact time 0 h 9.10^4 CFU/mL
From the text: as §1, §2
(§4) The words “contact time” refer to below, the time of exposure of the microorganisms to the fungicidal product, here molecule A1.
(§5) Below: “No CFU” is the abbreviation for “No Colony forming unit on agar plate count”.
as §3

[3] = test system: Sacch. Cerevisae DSM 70449; experiment: Agar plate count after contact with antifungal; format: cell-based, Saccharomyces cerevisae; conditions: 400 mg/L; count at contact time 0 h 8.10^4 CFU/mL
From the text: as §1, §2, §4, §5, §3

For C[C@@H]1[C@H](O)[C@@H](C)/C=C/C=C/C=C/C=C/C=C/C=C/C=C/[C@H](O[C@@H]2O[C@H](C)[C@@H](O)[C@H](N)[C@@H]2O)C[C@@H]2O[C@](O)(C[C@@H](O)C[C@@H](O)[C@H](O)CC[C@@H](O)C[C@@H](O)CC(=O)O[C@H]1C)C[C@H](O)[C@H]2C(=O)O [Molecule A1, Amphotericin B], the “Bactericidal action on lactic acid and acetic acid flora” value ([1]; doses of 200 mg/liter) was “non-bactericidal for lactic acid bacteria and acetic acid bacteria”, the “Bactericidal action on lactic acid and acetic acid flora” value ([1]; doses of 400 mg/liter) was “non-bactericidal” and the “Agar plate count contact time 4 h” value [2] was “No CFU”. The “Agar plate count contact time 4 h” value [3] was “No CFU”.
